Assay results taken from patent US11806340B2, “Methods of diagnosing and treating conduct disorder” (THE CHILDREN'S HOSPITAL OF PHILADELPHIA, priority 2015, dated 2023).

What was measured:
[1] = tested on: ADHD subjects with CNV in an mGluR network gene; test: Open-label Phase Ib clinical trial of NFC-1 in adolescent ADHD subjects with a genetic alteration in an mGluR network gene; type: in vivo, human
Experimental: An open-label Phase Ib clinical trial was conducted to investigate the safety, pharmacokinetics and efficacy of NFC-1 (fasoracetam monohydrate) in adolescent subjects between the ages of 12 and 17 previously diagnosed with ADHD who also had at least one genetic alteration in an mGluR network gene.
The study included 30 ADHD subjects who were between ages 12 and 17, of any ancestry or race, of weight within the 5th to 95th percentile for their age, and otherwise judged to be in good medical health. […] Seventeen of the 30 subjects have a CNV in a tier 1 mGluR network gene, while 7 subjects have a CNV in a tier 2 gene and 6 in a tier 3 gene.
Exclusion criteria comprised subjects suffering from a clinically significant illness, either mental or physical, that, in the investigator's opinion, might confound the results of the study or that might prevent them from completing the study, subjects that are pregnant or nursing, subjects that test positive for illicit drugs of that have a history of drug abuse, subjects that consume alcoholic beverages, or subjects for which the investigator is otherwise concerned regarding their compliance or suitability.
NFC-1 capsules of either 50 mg or 200 mg comprising fasoracetam monohydrate as active ingredient and placebo capsules comprising microcellulose were used for the study. The design of the trial was a phone screening (1 day), enrollment phase (1 to 2 days), a wash-out phase for subjects currently on ADHD medications (1-14 days), pharmacokinetic (PK) assessment (2 days), followed by a dose-escalation phase (35 days) and a follow-up phone visit approximately four weeks after the last dose, for a maximum of 127 days. All ADHD medications were discontinued during the wash-out phase prior to the study. The wash-out period for stimulants was 2-3 days and that for atomoxetine or noradrenergic agonists was 10-12 days. No new ADHD medications were started during the study.
A dose-escalation phase of the trial ran over a 5-week period, after the initial wash-out period and the PK and initial safety assessments. […]

[2] = tested on: dementia-related cognitive impairment; settings: cited from earlier work
[3] = prior human studies; cited from earlier work

Structure (SMILES) | OCD symptoms ([1]; all eight subjects with OCD symptoms, during therapy) | dermatillomania symptoms (ear scratching, bleeding ulcer) ([1]; one subject with OCD and a history of ear scratching, during therapy) | conduct disorder symptoms, Vanderbilt items 27-40 score ([1]; week 5, one subject meeting conduct disorder criteria, decreased from 16 at week 1 (placebo week), 50-400 mg bid dose escalation) | safety and tolerability ([2]; Phase I-III trials, dementia-related cognitive impairment) | effects on psychiatric symptoms ([2]; Phase III data, cerebral infarct patients and adult dementia patients with cerebrovascular diseases) | efficacy in dementia ([2]; Phase III trials) | bioavailability [3]
O=C1CC[C@H](C(=O)N2CCCCC2)N1 [NFC-1, fasoracetam monohydrate] | improved | reduced | 12 | generally safe and well tolerated | beneficial effects | did not show sufficient efficacy | 
O=C1CC[C@H](C(=O)N2CCCCC2)N1 [Fasoracetam, fasoracetam] |  |  |  |  |  |  | 79%-97%
